Laboratory results published in publication PMC12615518, “Discovery of CRBN-recruiting PROTAC degraders of the METTL3-METTL14 complex” (Medicinal Chemistry Research, 2025).
“Also recorded” adds a separate entry of the source.

Assays:
MOLM13 cells = experiment: Cell viability assay (CCK-8) in MOLM13 cells; assay type: cell-based, human; conditions: CCK-8, normalized to vehicle
Procedure: (§1) We proceeded to evaluate the cytotoxic activities of ZW30441 in AML cell lines by treating MOLM13 and MV4-11 cells with ZW30441 in increasing doses for 72 h.
(§2) Cell Lines and Culture Conditions: The human acute myeloid leukemia (AML) cell lines MOLM13 and MV4.11, as well as the HEK 293T epithelial kidney cell line, were obtained from the American Type Culture Collection (ATCC, USA). AML cells were maintained in RPMI-1640 medium (Gibco, USA) supplemented with 10% fetal bovine serum (FBS) and 1% penicillin-streptomycin (Sigma, Germany). HEK 293T cells were cultured in complete Dulbecco’s Modified Eagle Medium (DMEM) containing 10% FBS and 1% penicillin-streptomycin (Sigma). All cell lines were maintained under standard conditions in a humidified atmosphere at 37 °C with 5% CO₂.
(§3) Cell Viability Assay: AML cells were seeded in 96-well plates at a density of 5,000 cells per well and treated with varying concentrations of ZW30441 or vehicle (dimethyl sulfoxide, DMSO). Each condition was performed in triplicate. After the treatment period, cell viability was measured using the Cell Counting Kit-8 (CCK-8; APExBIO, USA, Cat# K1018) according to the manufacturer’s instructions. Absorbance was recorded at 450 nm using a SPECTROstar microplate reader (BMG LABTECH, USA).

MV4-11 cells [1] = experiment: Cell viability assay (CCK-8) in MV4-11 cells; assay type: cell-based; conditions: Homo sapiens, MV4-11, 72 h, CCK-8, normalized to vehicle
Procedure: as §1, §2, §3

MV4-11 cells [2] = experiment: Cell proliferation assay in MV4-11 cells; assay type: cell-based, human; conditions: 5 µM, 4-day period
Procedure: as §1
Cell Proliferation Assay: To assess cell growth, 1×10⁵ cells were seeded per well in 24-well plates in triplicate and treated with 5 µM concentrations of the test compounds. The culture medium containing the compounds was refreshed every 48 hours, and cell densities were maintained below 1×10⁶ cells/mL through periodic dilution. Cell numbers were measured every other day over a 4-day period using a DS-11 automated cell counter (DeNovix, USA).

[3] = Metabolic stability in human liver microsomes; assay type: in vitro ADME; conditions: NADPH, 37 °C
Procedure: To evaluate the potential for advancing this compound to in vivo studies, the in vitro metabolic stability of this compound was determined in human liver microsomes. […] The flexible linker could then be one potential reason for overall metabolic instability. With this knowledge in hand, further optimization of the lead compound would be necessary before beginning in vivo studies. One potential approach is to introduce more rigid linker systems, thereby reducing molecular flexibility to enhance the metabolic stability while continuing to improve potency.
Materials for Microsomal Stability: Reagent-grade KH2PO4, K2HPO4, acetonitrile, methanol, and formic acid (LC-MS grade) were purchased from Fisher Scientific. Phenacetin (≥98% purity) and verapamil (≥98% purity) were obtained from Sigma-Aldrich. Reduced nicotinamide adenine dinucleotide phosphate (NADPH) and human liver microsomes (Lot No # 1210270) were obtained from MP Biomedicals and BioIVT, respectively. Ultrapure water was used for analysis.
Metabolic Stability: Metabolic stability was assessed using male human liver microsomes. ZW30441 was incubated at a concentration of 1 µM with 1 mg/mL of microsomal protein in 50 mM phosphate buffer (pH 7.4). […] Following protein precipitation, the samples were filtered using a Solvinert 96-well plate, centrifuged at 2000 rpm, and analyzed by LC–MS/MS. […]

METTL3 = METTL3 (Homo sapiens, UniProt Q86U44); experiment: Immunoblotting (Western blot) degradation of METTL3 in MV4-11 cells; assay type: cell-based; design: Following treatment, total cellular proteins were extracted using RIPA buffer; endogenous in cells; host or cells: MV4-11 (MV4.11) human AML cells, ATCC
METTL3, sequence (Q86U44 2-580 limits assumed): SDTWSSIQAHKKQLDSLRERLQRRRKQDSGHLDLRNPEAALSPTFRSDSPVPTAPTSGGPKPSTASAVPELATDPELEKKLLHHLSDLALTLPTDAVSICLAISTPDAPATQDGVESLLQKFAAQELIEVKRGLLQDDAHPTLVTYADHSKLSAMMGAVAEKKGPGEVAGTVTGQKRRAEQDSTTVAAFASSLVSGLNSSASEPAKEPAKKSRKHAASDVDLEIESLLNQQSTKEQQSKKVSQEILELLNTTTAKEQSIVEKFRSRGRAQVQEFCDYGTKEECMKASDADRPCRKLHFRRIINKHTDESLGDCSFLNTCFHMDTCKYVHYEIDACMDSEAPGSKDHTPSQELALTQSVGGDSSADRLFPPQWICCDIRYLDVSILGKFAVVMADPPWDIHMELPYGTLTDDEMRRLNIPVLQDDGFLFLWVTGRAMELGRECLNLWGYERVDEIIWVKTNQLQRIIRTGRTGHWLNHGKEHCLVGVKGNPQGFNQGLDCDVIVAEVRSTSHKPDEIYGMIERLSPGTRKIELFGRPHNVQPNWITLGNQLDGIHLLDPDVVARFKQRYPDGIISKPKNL
METTL3, sequence (Q9HCE5 whole entry partner): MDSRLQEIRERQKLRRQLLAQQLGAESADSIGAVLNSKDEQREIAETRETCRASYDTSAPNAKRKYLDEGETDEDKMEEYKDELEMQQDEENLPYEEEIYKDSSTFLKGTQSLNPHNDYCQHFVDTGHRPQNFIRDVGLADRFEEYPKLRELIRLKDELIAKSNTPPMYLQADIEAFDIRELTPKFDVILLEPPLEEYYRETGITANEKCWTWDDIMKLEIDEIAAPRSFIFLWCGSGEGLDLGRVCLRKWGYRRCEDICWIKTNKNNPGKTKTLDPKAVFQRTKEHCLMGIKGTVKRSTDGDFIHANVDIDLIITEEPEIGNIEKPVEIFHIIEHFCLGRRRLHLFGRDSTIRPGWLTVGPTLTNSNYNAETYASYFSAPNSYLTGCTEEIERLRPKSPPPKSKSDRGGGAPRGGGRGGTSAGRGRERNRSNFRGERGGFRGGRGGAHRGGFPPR
Procedure: All cell lines were maintained under standard conditions in a humidified atmosphere at 37 °C with 5% CO₂.
Western Blot Analysis: Following treatment, total cellular proteins were extracted using RIPA buffer (Auragene, Changsha, China). […] After washing, membranes were incubated with horseradish peroxidase (HRP)-conjugated secondary antibodies (anti-rabbit or anti-mouse IgG; 1:5000) for 2 hours at room temperature. Protein bands were visualized using an enhanced chemiluminescence (ECL) detection kit (Amersham Pharmacia), following the manufacturer's protocol. Band intensities were quantified using ImageJ software and normalized to ACTIN as a loading control. Data was analyzed using GraphPad Prism 9.

intrinsic clearance (Clint) in human liver microsomes ([3]; 1 µM, 1 mg/mL microsomal protein): 152.1 ± 26.1 uL/min/mg of protein
half-life at 1 µM ([3]; male, human, liver microsomes, pH 7.4, 1 mg/mL microsomal protein, read-out: half-life (T1/2) in human liver microsomes): 4.6 ± 0.7 min
Dmax (METTL3; MV4-11, MV4-11 cells, 24 h): 80%
% reduction in MV4-11 cells, 0.3 µM, METTL3 (METTL3; MV4-11 cells, 0.3 µM, 24 h, immunoblotting, nd = no degradation): 58%
% reduction in MV4-11 cells, 1.0 µM, METTL3 (METTL3; MV4-11 cells, 1.0 µM, 24 h, immunoblotting, nd = no degradation): 81%
DC50 (METTL3; MV4-11 cells, 24 h, Western blot normalized against ACTIN): 440 nM
time of maximum degradation of METTL3 (METTL3; MV4-11 cells, time course at 1 µM): 20 h
Structure (SMILES): CC1(C)CCN(Cc2cc(F)c(N3CC(=O)NC4(CCN(c5cc(NCCCCCCCCCC(=O)N6CCN(c7ccc8c(c7)CN(C7CCC(=O)NC7=O)C8=O)CC6)ncn5)CC4)C3)cc2F)CC1 (stereo not drawn) [Compound 4j, 3-(5-(4-(10-((6-(4-(4-((4,4-dimethylpiperidin-1-yl)methyl)-2,5-difluorophenyl)-2-oxo-1,4,9-triazaspiro[5.5]undecan-9-yl)pyrimidin-4-yl)amino)decanoyl)piperazin-1-yl)-1-oxoisoindolin-2-yl)piperidine-2,6-dione]
EC50 (MOLM13 cells; 72 h, listed as ZW30441): 1020 nM
EC50 (MOLM13 cells; Homo sapiens, MOLM-13, 72 h): 1020 nM
EC50 (MV4-11 cells [1]): 2410 nM
anti-proliferation activity compared to STM2457 and UZH2 (MV4-11 cells [2]): enhanced cytotoxicity
anti-proliferation activity compared to STM2457 and UZH2 (MV4-11 cells [2]; listed as ZW30441): more potent anti-proliferation activity; also recorded: superior cellular activity
